Source: patent US20040086901A1, “Database for analyzing gene function and method of analyzing gene function by dspa” (priority 2000, published 2004)
Non-standard residues stand in square brackets, D forms with d. Residues, ends and D or L forms follow the SMILES beside them. Nle = CCCC[C@H](N)C(=O)O

How the values were obtained:
Type in all cases: cell-based, mouse
[1] = tested on: NIH3T3 cells overexpressing HNF3b; assay: MTT cell viability, HNF3b overexpressing cells vs parental line; settings: HNF3b high-expressing cells / parental cell line, 3 to 4 days
Procedure: (§1) With regard to the function-known genes, the genes shown in the left column of Table 2 were used. With regard to the drugs, those shown in Table 1 were dissolved in DMSO to an extent of 100-fold of the maximum concentration for the search of the drugs and used. With regard to the cells, incubated NIH3T3 or ras-NIH3T3 cells were used.
(§2) Full-length cDNA of each function-known genes was incorporated into an expression vector (pRc-CMV, etc.) and transfected into NIH3T3 cells by a common method. Transformed cells were isolated using the resistance to G-418 as an index and the expression of the transfected gene in each cell was investigated by Western blotting method to select a highly expressing line.
(§3) Cell viabilities were measured according to the following procedures.
(§4) 1) From the 2nd to the 11th rows of a 96-well plate were filled with DMEM (50 μl). The 12th row was filled with 100 μl of DMEM.
(§5) 2) The 1st row was filled with 98 μl of DMEM.
(§6) 3) Drugs (2 μl each) were added into the 1st row.
(§7) 4) Continuous double-dilution was conducted from the 1st to the 9th rows. Fifty μl were taken out from the 9th row and discarded. The plate was preserved in a CO2 incubator.
(§8) 5) Cells (each high-expressing cells and the parental cell line) were detached from the medium using a trypsin solution, suspended in 10% CS-DMEM and transferred to a test tube and cell numbers (cell/ml) were counted.
(§9) 6) The cells were diluted to a concentration of 1×10^5 cells/ml, and 50 μl of the cell suspension were added to the 1st to the 11th rows of the plate followed by gently stirring.
(§10) 7) The plate was transferred to the CO2 incubator and incubated for 3 to 4 days.
(§11) 8) MTT (5 mg/ml in PBS) (10 μl) was added to the 1st to the 12th rows of the plate and incubated in the CO2 incubator at 37° C. for 4 hours.
(§12) 9) A reaction stop solution (0.04N HCl in isopropanol) (150 μl) was added followed by mixing well and being allowed to stand at room temperature for about 2 hours.
(§13) 10) Coloration of formazan which was a metabolite of the MTT dye was measured using a microplate reader. The measurement wavelength was 574 nm and the reference wavelength was 655 nm. The 10th and the 11th rows of the plate were 100% controls and the 12th row was a 0% control.
(§14) As an index for the sensitivity of highly gene-expressing cells and the parental cell line to various drugs, each of the IC40 values thereof was specified and ratios of the IC40 values were calculated. […] After that, logarithmic values of ratios of IC40 values were calculated from each gene.

[2] = tested on: NIH3T3 cells overexpressing HSP4O; assay: MTT cell viability, HSP4O overexpressing cells vs parental line; settings: HSP4O high-expressing cells / parental cell line, 3 to 4 days
Procedure: as §1, §2, §3, §4, §5, §6, §7, §8, §9, §10, §11, §12, §13
(§15) As an index for the sensitivity of highly gene-expressing cells and the parental cell line to various drugs, each of the IC40 values thereof was specified and ratios of the IC40 values were calculated. FIG. 2 and FIG. 3 are the examples where ratios of IC40 values were calculated from a curve showing the dependency on the concentration of the chemical versus the viability. After that, logarithmic values of ratios of IC40 values were calculated from each gene.

[3] = tested on: NIH3T3 cells overexpressing CaMKIIa; assay: MTT cell viability, CaMKIIa overexpressing cells vs parental line; settings: CaMKIIa high-expressing cells / parental cell line, 3 to 4 days
Procedure: as §1, §2, §3, §4, §5, §6, §7, §8, §9, §10, §11, §12, §13, §14

[4] = tested on: NIH3T3 cells overexpressing PKCalpha-KN; assay: MTT cell viability, PKCalpha-KN overexpressing cells vs parental line; settings: 3 to 4 days
Procedure: as §1, §2, §3, §4, §5, §6, §7, §8, §9, §10, §11, §12, §13, §14

[5] = tested on: NIH3T3 cells overexpressing Ha-ras; assay: MTT cell viability, drug sensitivity of Ha-ras overexpressing cells vs parental line; settings: Ha-ras high-expressing cells / parental cell line, 3 to 4 days
Procedure: as §1, §2, §3, §4, §5, §6, §7, §8, §9, §10, §11, §12, §13, §14

[6] = tested on: NIH3T3 cells overexpressing caspase-2; assay: MTT cell viability, caspase-2 overexpressing cells vs parental line; settings: caspase-2 high-expressing cells / parental cell line, 3 to 4 days
Procedure: as §1, §2, §3, §4, §5, §6, §7, §8, §9, §10, §11, §12, §13, §15

[7] = tested on: NIH3T3 cells overexpressing HNF1; assay: MTT cell viability, HNF1 overexpressing cells vs parental line; settings: HNF1 high-expressing cells / parental cell line, 3 to 4 days
Procedure: as §1, §2, §3, §4, §5, §6, §7, §8, §9, §10, §11, §12, §13, §14

[8] = tested on: NIH3T3 cells overexpressing cystatin E; assay: MTT cell viability, cystatin E overexpressing cells vs parental line; settings: cystatin E high-expressing cells / parental cell line, 3 to 4 days
Procedure: as §1, §2, §3, §4, §5, §6, §7, §8, §9, §10, §11, §12, §13, §15

[9] = tested on: NIH3T3 cells overexpressing p38-DN; assay: MTT cell viability, p38-DN overexpressing cells vs parental line; settings: p38-DN high-expressing cells / parental cell line, 3 to 4 days
Procedure: as §1, §2, §3, §4, §5, §6, §7, §8, §9, §10, §11, §12, §13, §14

[10] = tested on: NIH3T3 cells overexpressing coup; assay: MTT cell viability, coup overexpressing cells vs parental line; settings: coup high-expressing cells / parental cell line, 3 to 4 days
Procedure: as §1, §2, §3, §4, §5, §6, §7, §8, §9, §10, §11, §12, §13, §15

[11] = tested on: NIH3T3 cells overexpressing N-ras; assay: MTT cell viability, N-ras overexpressing cells vs parental line; settings: N-ras high-expressing cells / parental cell line, 3 to 4 days
Procedure: as §1, §2, §3, §4, §5, §6, §7, §8, §9, §10, §11, §12, §13, §15

[12] = tested on: NIH3T3 cells overexpressing HNF4; assay: MTT cell viability, HNF4 overexpressing cells vs parental line; settings: HNF4 high-expressing cells / parental cell line, 3 to 4 days
Procedure: as §1, §2, §3, §4, §5, §6, §7, §8, §9, §10, §11, §12, §13, §14

[13] = tested on: NIH3T3 cells overexpressing caspase-1; assay: MTT cell viability, caspase-1 overexpressing cells vs parental line; settings: caspase-1 high-expressing cells / parental cell line, 3 to 4 days
Procedure: as §1, §2, §3, §4, §5, §6, §7, §8, §9, §10, §11, §12, §13, §14

[14] = tested on: NIH3T3 cells overexpressing PDGF-R; assay: MTT cell viability, PDGF-R overexpressing cells vs parental line; settings: PDGF-R high-expressing cells / parental cell line, 3 to 4 days
Procedure: as §1, §2, §3, §4, §5, §6, §7, §8, §9, §10, §11, §12, §13, §15

[15] = tested on: NIH3T3 cells overexpressing m-calpain; assay: MTT cell viability, m-calpain overexpressing cells vs parental line; settings: m-calpain high-expressing cells / parental cell line, 3 to 4 days
Procedure: as §1, §2, §3, §4, §5, §6, §7, §8, §9, §10, §11, §12, §13, §14

[16] = tested on: NIH3T3 cells overexpressing Ki-ras; assay: MTT cell viability, Ki-ras overexpressing cells vs parental line; settings: Ki-ras high-expressing cells / parental cell line, 3 to 4 days
Procedure: as §1, §2, §3, §4, §5, §6, §7, §8, §9, §10, §11, §12, §13, §15

[17] = tested on: NIH3T3 cells overexpressing caspase-3; assay: MTT cell viability, caspase-3 overexpressing cells vs parental line; settings: caspase-3 high-expressing cells / parental cell line, 3 to 4 days
Procedure: as §1, §2, §3, §4, §5, §6, §7, §8, §9, §10, §11, §12, §13, §14

[18] = tested on: NIH3T3 cells overexpressing Regucalcin; assay: MTT cell viability, Regucalcin overexpressing cells vs parental line; settings: Regucalcin high-expressing cells / parental cell line, 3 to 4 days
Procedure: as §1, §2, §3, §4, §5, §6, §7, §8, §9, §10, §11, §12, §13, §15

[19] = tested on: NIH3T3 cells overexpressing p16/INK4A; assay: MTT cell viability, p16/INK4A overexpressing cells vs parental line; settings: p16/INK4A high-expressing cells / parental cell line, 3 to 4 days
Procedure: as §1, §2, §3, §4, §5, §6, §7, §8, §9, §10, §11, §12, §13, §15

[20] = tested on: NIH3T3 cells overexpressing CBP8; assay: MTT cell viability, CBP8 overexpressing cells vs parental line; settings: CBP8 high-expressing cells / parental cell line, 3 to 4 days
Procedure: as §1, §2, §3, §4, §5, §6, §7, §8, §9, §10, §11, §12, §13, §15

[21] = PKCalpha-KN (first of two lines) high-expressing cells / parental cell line
[22] = PKCalpha-KN (second of two lines) high-expressing cells / parental cell line

| Compound | logarithmic value of ratio of IC40 values [1] | logarithmic value of ratio of IC40 values [2] | logarithmic value of ratio of IC40 values [3] | logarithmic value of ratio of IC40 values [4, 21] | logarithmic value of ratio of IC40 values [4, 22] | logarithmic value of ratio of IC40 values [5] | logarithmic value of ratio of IC40 values [6] | logarithmic value of ratio of IC40 values [7] | logarithmic value of ratio of IC40 values [8] | logarithmic value of ratio of IC40 values [9] | logarithmic value of ratio of IC40 values [10] | logarithmic value of ratio of IC40 values [11] | logarithmic value of ratio of IC40 values [12] | logarithmic value of ratio of IC40 values [13] | logarithmic value of ratio of IC40 values [14] | logarithmic value of ratio of IC40 values [15] | logarithmic value of ratio of IC40 values [16] | logarithmic value of ratio of IC40 values [17] | logarithmic value of ratio of IC40 values [18] | logarithmic value of ratio of IC40 values [19] | other results |
| --- | --- | --- | --- | --- | --- | --- | --- | --- | --- | --- | --- | --- | --- | --- | --- | --- | --- | --- | --- | --- | --- |
| CNc1ccc2oc(C[C@H]3O[C@@]4(CC[C@H]3C)O[C@H]([C@H](C)C(=O)c3ccc[nH]3)[C@H](C)C[C@H]4C)nc2c1C(=O)O [A23187] | −0.16 | −0.16 | 0.00 | 0.22 | −0.05 | −0.28 | 0.48 | 0.35 | 0.22 | −0.12 | −0.12 | 0.20 | 0.19 | −0.22 | 0.31 | 0.26 | 0.06 | 0.28 | 0.03 | 0.00 | logarithmic value of ratio of IC40 values [20]: 0.22 |
| CCCC[C@@H](C=O)NC(=O)[C@H](CC(C)C)NC(=O)[C@H](CC(C)C)NC(C)=O [ALLN] (Ac-Leu-Leu-[Nle]-aldehyde) | 0.28 | 0.18 | 0.00 | 0.11 | −0.01 | 0.15 | −0.04 | 0.16 | 0.19 | 0.04 | 0.06 | 0.17 | −0.15 | −0.04 | 0.22 | 0.00 | 0.11 | −0.09 | 0.00 | 0.09 | logarithmic value of ratio of IC40 values [20]: 0.11 |
| CC(=O)OCOC(=O)CN(CC(=O)OCOC(C)=O)c1ccccc1OCCOc1ccccc1N(CC(=O)OCOC(C)=O)CC(=O)OCOC(C)=O [BAPTA-AM] | −0.07 | 0.05 | −0.12 | 0.43 | −0.42 | −0.20 | 0.23 | 0.20 | −0.02 | 0.00 | 0.09 | 0.00 | −0.10 | 0.60 | 0.29 | 0.00 | −0.15 | 0.60 | −0.39 | 0.20 | logarithmic value of ratio of IC40 values [20]: 0.00 |
| C[C@@H]1C[C@@H]([C@H](O)CC2CC(=O)NC(=O)C2)C(=O)[C@@H](C)C1 [CHX, cycloheximide] | 0.07 | 0.00 | 0.04 | 0.30 | 0.29 | −0.19 | 0.74 | 0.38 | 0.00 | 0.04 | 0.12 | −0.42 | 0.22 | −0.05 | 0.51 | 0.22 | −0.43 | 0.10 | 0.08 | 0.04 | logarithmic value of ratio of IC40 values [20]: 0.00 |
